Test results: patent US9394317B2, “Imidazo pyridine compounds” (Eli Lilly and Company, priority 2013, dated 2016)

Columns and labels:
[1] = biological target: T1, recombinant human autotaxin (Homo sapiens, UniProt Q13822); experiment: Inhibition of Autotaxin as Measured by Choline Release; type: biochemical; conditions: substrate LPC 16:0 30 μM, 37° C., 1 hour; arithmetic mean
T1 construct: full length human autotaxin with a C-terminal His tag transfected into 293E cells; His tag (C); made in house; host or cells: 293E cells
Experimental: The purpose of this assay is to detect autotaxin inhibition using a choline release assay.
Test compounds (10 mM stocks in 100% DMSO) are serially diluted in 100% DMSO resulting in 10 concentrations of 100× inhibitor in half area 96 well plates (Corning 3992). Each of these 10 wells in 100% DMSO is diluted 1:33.33 in assay buffer in round bottom 96 well plates (Fisher 12565502) resulting in 3× concentrations in well containing 3% DMSO. The assay buffer is 50 mM Tris pH8.0, 5 mM KCl, 1 mM CaCl2, 1 mM MgCl2, 0.01% TRITON™ X-100 (Sigma T9284) and 0.01% fatty acid free bovine serum albumin (Sigma A8806). A 20 μl aliquot of each 3× test compound is then added to black flat bottom 96 well plates (Corning 3991) in singlicate. A 20 μl aliquot per well of 3× recombinant human autotaxin (full length human autotaxin with a C-terminal His tag transfected into 293E cells and purified via nickel chelate and size exclusion chromatography) is then added to every well except for the no enzyme control wells. […] The resorufin on the plates is measured with a SpectraMax Gemini EM fluorometer at excitation-emission wavelengths of 530-590 nm using SoftMax Pro 4.8 software. IC50s are calculated using 4 parameter curve fits with the internal Lilly software OLO curve fitting tool. Results are expressed as the arithmetic mean +/− standard deviation; n=x.

endogenous autotaxin = biological target: T2, endogenous autotaxin (Homo sapiens, UniProt Q13822); experiment: Reduction of LPA in the Presence of Human Plasma; type: biochemical; conditions: 90% pooled human plasma, 3 hours at 37° C., total LPA by mass spec; arithmetic mean
T2 construct: The increased endogenous LPC levels are cleaved by endogenous autotaxin; tissue Lampire Biologicals; host or cells: pooled human plasma (healthy female donors, sodium heparin)
From the text: The following assay is intended to measure the reduction of LPA. This assay is a tool that can be used to identify selective autotaxin-mediated LPA inhibitor compounds when it is used to test compounds that have been identified as autotaxin inhibitors. LPA biosynthesis through autotaxin is believed to the source of LPA for LPA1 mediated neuropathic pain. Makoto Inoue, et. al, “Autotaxin, a synthetic enzyme of lysophosphatidic acid (LPA), mediates the induction of nerve-injured neuropathic pain”, Molecular Pain, 2008, 4:6. Targeted inhibition of the autotaxin mediated LPA biosynthesis is supported by the results of this assay.
Units of plasma from healthy human female donors collected in sodium heparin (Lampire Biologicals) are pooled, aliquoted and stored at −80° C. […] A 400 μl aliquot of extraction buffer (50% methanol, 49.9% acetonitrile, 0.1% acetic acid) containing LPA internal standards (50 ng/ml D5 deuterium LPA 16:0 and 50 ng/ml D5 deuterium LPA 18:0) is added to each well and the total LPA in each sample is determined by mass spec analysis. Percent reduction of LPA is calculated according to the following formula: 100−(3 hour plasma+test compound−0 hour plasma no test compound control)/(3 hour plasma no test compound control−0 hour plasma no test compound control)×100
IC50 values are calculated using 4 parameter curve fitting. […]

| IC50 [1] | IC50 (endogenous autotaxin) | SMILES |
| --- | --- | --- |
| < 1.7 nM | 2.22 nM | O=C(OCC1CCc2nccn2C1)N1Cc2cnc(NC3Cc4ccccc4C3)nc2C1 (single isomer, unassigned; isomer 2) [Example 3, 5,6,7,8-tetrahydroimidazo[1,2-a]pyridin-6-ylmethyl 2-(2,3-dihydro-1H-inden-2-ylamino)-5,7-dihydro-6H-pyrrolo[3,4-d]pyrimidine-6-carboxylate isomer 2] |
| 2.04 nM | 12.9 nM | O=C(OCC1Cn2ccnc2CO1)N1Cc2cnc(NC3Cc4ccccc4C3)nc2C1 (single isomer, unassigned; isomer 2) [Example 8, 5,6-dihydro-8H-imidazo[2,1-c][1,4]oxazin-6-ylmethyl 2-(2,3-dihydro-1H-inden-2-ylamino)-5,7-dihydro-6H-pyrrolo[3,4-d]pyrimidine-6-carboxylate isomer 2] |
